Data published in patent publication US10239887B2, “Positive allosteric modulators of the muscarinic acetylcholine receptor M4” (Vanderbilt University, priority 2016, dated 2019).

Biological target: T1, human mAChR M4 (Homo sapiens, UniProt P08173)
T1 sequence (P08173 1-479): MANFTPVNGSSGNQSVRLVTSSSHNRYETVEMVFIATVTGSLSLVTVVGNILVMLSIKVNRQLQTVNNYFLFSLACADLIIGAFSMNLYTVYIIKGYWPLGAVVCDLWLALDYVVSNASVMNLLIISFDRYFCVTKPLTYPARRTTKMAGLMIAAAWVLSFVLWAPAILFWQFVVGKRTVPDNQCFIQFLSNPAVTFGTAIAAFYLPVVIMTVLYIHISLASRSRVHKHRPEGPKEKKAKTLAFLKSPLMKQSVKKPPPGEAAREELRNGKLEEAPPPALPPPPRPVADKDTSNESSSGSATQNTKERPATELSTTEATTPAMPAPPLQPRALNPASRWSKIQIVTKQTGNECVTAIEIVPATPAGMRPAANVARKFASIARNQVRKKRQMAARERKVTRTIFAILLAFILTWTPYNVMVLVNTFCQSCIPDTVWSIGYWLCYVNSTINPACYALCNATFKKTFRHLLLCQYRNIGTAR
Experiment: mAChR M4 cell-based functional assay (calcium flux), human M4
Conditions: Table 10; for EC50: Human M4 EC50 (nM), calcium flux, PAM activity with EC20 acetylcholine; for Emax: % ACh maximum at 30 μM

| Structure (SMILES) | EC50 [nM] | Emax [%] |
| --- | --- | --- |
| Cc1nnc2sc3c(NCc4ccc(-c5ccn(C)n5)cc4)ncnc3c2c1C [Compound 192, 3,4-dimethyl-N-[[4-(1-methylpyrazol-3-yl)phenyl]methyl]pyrimido [4′,5′:4,5]thieno[2,3-c] pyridazin-8-amine] | 851 | 85.9 |
| Cc1nnc2sc3c(NCc4ccc(-c5ccnn5C)cc4)ncnc3c2c1C [Compound 193, 3,4-dimethyl-N-[[4-(2-methylpyrazol-3-yl)phenyl]methyl]pyrimido [4′,5′:4,5]thieno[2,3-c] pyridazin-8-amine] | 439 | 82 |
| COCC1CN(c2ncnc3c2sc2nc(C)cc(C)c23)C1 [Compound 194, 4-[3-(methoxymethyl)azetidin-1-yl]-7.9-dimethyl-pyrido [3′,2′:4,5]thieno[3,2-d] pyrimidine] | 762 | 88.7 |
| Cc1cc(C)c2c(n1)sc1c(N3CC4(COC4)C3)ncnc12 [Compound 195, 6-(7,9-dimethylpyrido [3′,2′:4,5]thieno[3,2-d]pyrimidin-4-yl)-2-oxa-6-azaspiro[3.3]heptane] | – | 76.3 |
| Cc1cc(C)c2c(n1)sc1c(N3CC4CC4C3)ncnc12 (centres unmarked) [Compound 196, 4-(3-azabicyclo [3.1.0]hexan-3-yl)-7,9-dimethyl-pyrido [3′,2′:4,5]thieno[3,2-d] pyrimidine] | 453 | 74.5 |
| Cc1cc(C)c2c(n1)sc1c(N3CCC3)ncnc12 [Compound 197, 4-(azetidin-1-yl)-7,9-dimethyl-pyrido [3′,2′:4,5]thieno[3,2-d] pyrimidine] | 172 | 58.7 |
| Cc1cc(C)c2c(n1)sc1c(N3CC(F)(F)C3)ncnc12 [Compound 198, 4-(3,3-difluoroazetidin-1-yl)-7,9-dimethyl-pyrido[3′,2′:4,5] thieno[3,2-d]pyrimidine] | 456 | 68.7 |
| Cc1cc(C)c2c(n1)sc1c(N3CCCC3)ncnc12 [Compound 199, 7,9-dimethyl-4-pyrrolidin-1-yl-pyrido[3′,2′:4,5] thieno[3,2-d]pyrimidine] | 277 | 67.3 |
| Cc1cc(C)c2c(n1)sc1c(NC3CCC3)ncnc12 [Compound 200, N-cyclobutyl-7,9-dimethyl-pyrido [3′,2′:4,5]thieno[3,2-d] pyrimidin-4-amine] | 359 | 75.5 |
| Cc1cc(C)c2c(n1)sc1c(N3CC(c4ccncc4)C3)ncnc12 [Compound 201, 7,9-dimethyl-4-[3-(4-pyridyl)azetidin-1-yl] pyrido[3′,2′:4,5]thieno [3,2-d]pyrimidine] | 341 | 66.5 |
| COc1ccc(C2CC2Nc2ncnc3c2sc2nc(C)cc(C)c23)cc1 (centres unmarked) [Compound 202, N-[2-(4-methoxyphenyl)cyclopropyl]-7,9-dimethyl-pyrido [3′,2′:4,5]thieno[3,2-d] pyrimidin-4-amine] | 1640 | 61.1 |
| Cc1cc(C)c2c(n1)sc1c(NCc3ccc(OC(F)F)nc3)ncnc12 [Compound 203, N-[[6-(difluoromethoxy)-3-pyridyl]methyl]-7.9-dimethyl-pyrido[3′,2′:4,5] thieno[3,2-d]pyrimidin-4-amine] | 4010 | 44.5 |
| Cc1cc(C)c2c(n1)sc1c(NCc3ccc(S(C)(=O)=O)cc3)ncnc12 [Compound 204, 7,9-dimethyl-N-[(4-methylsulfonylphenyl)methyl]pyrido [3′,2′:4,5]thieno[3,2-d] pyrimidin-4-amine] | 294 | 34.5 |
| Cc1cc(C)c2c(n1)sc1c(NCc3cnc(C)nc3)ncnc12 [Compound 205, 7,9-dimethyl-N-[(2-methylpyrimidin-5-yl)methyl]pyrido[3′,2′:4,5] thieno[3,2-d] pyrimidin-4-amine] | 1400 | 54.2 |
| Cc1cc(C)c2c(n1)sc1c(NCc3ccc(C(C)(C)O)cc3)ncnc12 [Compound 206, 2-[4-[[(7,9-dimethylpyrido [3′,2′:4,5]thieno[3,2-d]pyrimidin-4-yl)amino]methyl]phenyl]propan-2-ol] | 910 | 75.8 |
